Patent US4032656A, “Aromatic prostaglandin derivatives” (SmithKline Corporation, priority 1975, dated 1977)

Key:
[1] = system: prostaglandin synthesis; assay: Inhibition of prostaglandin synthesis (arachidonic acid-dependent formation of adrenochrome from L-epinephrine during prostaglandin biosynthesis; Takeguchi and Sih); assay type: biochemical; conditions: for IC50: read-out: ID50 (the source's name)
From the text: The prostaglandin synthesis inhibition method as employed is reported by Takeguchi and Sih, Prostaglandins, 2, 169, 1972. The principle entails the arachidonic acid-dependent formation of adrenochrome from L-epinephrine during prostaglandin biosynthesis. Indomethacin, phenylbutazone and aspirin were used as reference compounds.

[2] = system: PGE2 diarrhea in mice; assay: Antagonism of diarrhea induced by prostaglandin E2 (PGE2); assay type: in vivo; conditions: 20 mg./kg., subcutaneously 15 minutes prior to intraperitoneal PGE2, examined every 15 minutes for one hour
Protocol: The antagonism of diarrhea induced by prostaglandin E2 (PGE2) was determined by employing the modified standard animal pharmacological test procedure as reported in Intra Science Chem. Rept, 6:1-9, 1972 and Annals of the New York Academy of Sciences, 180:386-95, 1971. Briefly the test comprises administering the test compounds subcutaneously 15 minutes prior to an intraperitoneal injection of PGE2. Each animal is examined for diarrhea (which results after the administration of PGE2) every 15 minutes for one hour post-drug. Polyphloretin phosphate and 7 oxa-13-prostynoic acid, both well known antagonists of prostaglandin induced diarrhea, were employed as reference compounds.

[3] = prostaglandin synthesis inhibition

Row | Compound | IC50 [1, 3] [µM] | inhibition of PGE2 diarrhea in mice [2] [%] | other results
1 | CCCCCC(O)/C=C/c1ccccc1CCCCCCC(=O)O (stereo not drawn) [1-(6-carboxyhexyl)-2-(3-hydroxy-trans-1-octenyl)benzene] | 410 | – | inhibition of prostaglandin synthesis ([1]; at 1000 μM): 100%; potency as inhibitor relative to aspirin ([1]; ratio of ID50's, prostaglandin synthesis inhibition, vs aspirin): nine times as potent; potency as inhibitor relative to phenylbutazone ([1]; ratio of ID50's, prostaglandin synthesis inhibition, vs phenylbutazone): twice as potent
2 | polyphloretin phosphate [reference compound] | – | 36 | –
3 | CCCCCC(O)/C=C/c1ccccc1CCCCCCC(=O)OC (stereo not drawn) [1-(6-carbomethoxyhexyl)-2-(3-hydroxy-trans-1-octenyl)benzene] | – | 53 | –
4 | CC(=O)Oc1ccccc1C(=O)O [aspirin, reference compound] | 3700 | – | –
5 | CCCCC1C(=O)N(c2ccccc2)N(c2ccccc2)C1=O [phenylbutazone, reference compound] | 875 | – | –
